Assay results published in patent US9403823B2, “Protein kinase inhibitors” (ORIBASE PHARMA, priority 2012, dated 2016).
Read-outs that look alike come from different tables or passages of the source.

Key:
HuCCT1 cell line = experiment: In vitro cell proliferation assay (MTT), HuCCT1; type: cell-based; conditions: Homo sapiens, HuCCT-1; HuCCT1, 72 hr, MTT; read-out: EC50, anti-proliferative activity
Procedure: (§1) 2) In Vitro Cell Proliferation Assays (Table 22 to Table 35)
(§2) Cancer cell lines (5×10^3 cells per well) or HUVEC (1×10^4 cells per well) or HRMEC (1×10^4 cells per well) were distributed in 96-well plates and incubating in duplicate with escalating concentrations (10 nM to 3 μM) of compounds for 72 hr. Cell proliferation was measured using MTT (3[4,5-dimethylthiazol-2-yl]-2,5-diphenyltetrazolium bromide).

HepG2 cell line = experiment: In vitro cell proliferation assay (MTT), HepG2; type: cell-based; conditions: Homo sapiens, read-out: EC50, anti-proliferative activity
In short: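 Cancer cell lines were seeded at 5×10^3 cells per well and HRMEC at 1×10^4 cells per well, then incubated in duplicate with escalating compound concentrations (10 nM to 3 μM) for 72 hr. Proliferation was read by MTT.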

FGFR2 = biological target: T1, FGFR2 (Homo sapiens, UniProt P21802); experiment: In vitro kinase assay (Z'-LYTE), FGFR2; type: biochemical; conditions: read-out: % of inhibition of the kinase compared to the control
T1 construct: purchased Invitrogen
In short: (§3)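 FRET-based Z'-LYTE coupled-enzyme assay: kinase phosphorylates a dual-fluorophore peptide, unphosphorylated peptide is protease-cleaved, and donor/acceptor emission ratio after 400 nm excitation quantifies progress. Buffer 50 mM HEPES pH 7.5, 10 mM MgCl2, 1 mM EGTA, 0.01% BRIJ-35; 1% DMSO final. Single compound concentration: 100 nM, or 10 μM for ABL and ABL T315I.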

A549 cell line = experiment: In vitro cell proliferation assay (MTT), A549; type: cell-based; conditions: Homo sapiens, read-out: EC50, anti-proliferative activity
Procedure: as §1, §2

HT29 cell line = experiment: In vitro cell proliferation assay (MTT), HT29; type: cell-based; conditions: Homo sapiens, HT-29; HT29, 72 hr, MTT; read-out: EC50, anti-proliferative activity
Procedure: as §1, §2

H1975 cell line = experiment: In vitro cell proliferation assay (MTT), H1975; type: cell-based; conditions: Homo sapiens, read-out: EC50, anti-proliferative activity
Procedure: as §1, §2

PDGFRA (PDGFR alpha) = biological target: T2, PDGFRA (PDGFR alpha) (Homo sapiens, UniProt P16234); experiment: In vitro kinase assay (Z'-LYTE), PDGFRA; type: biochemical; conditions: read-out: % of inhibition of the kinase compared to the control
T2 construct: purchased Invitrogen
Procedure: (§4) 1) In Vitro Kinase Assays (Table 10 to Table 21)
(§5) The inhibitory activity of the compounds on several kinases including BRAF, EGFR (ErbB1), EGFR (ErbB1) T790M L858R, FGFR2, KDR (VEGFR2), PDGFRA (PDGFR alpha), SRC and other was evaluated by Invitrogen using the Z′-LYTE® technology. Briefly, the Z′-LYTE® biochemical assay employs a fluorescence-based, coupled-enzyme format and is based on the differential sensitivity of phosphorylated and non-phosphorylated peptides to proteolytic cleavage. The peptide substrate is labeled with two fluorophores—one at each end—that make up a FRET pair. A ratiometric method, which calculates the ratio (the Emission Ratio) of donor emission to acceptor emission after excitation of the donor fluorophore at 400 nm, is used to quantitate reaction progress.
(§6) The compounds are screened in 1% DMSO (final) in the well. For 10 point titrations, 3-fold serial dilutions are conducted from the starting concentration. All Peptide/Kinase Mixtures are diluted to a 2× working concentration in the appropriate Kinase Buffer. All ATP Solutions are diluted to a 4× working concentration in Kinase Buffer (50 mM HEPES pH 7.5, 0.01% BRIJ-35, 10 mM MgCl2, 1 mM EGTA). ATP Km apparent is previously determined using a Z′-LYTE® assay.
(§7) Each compound was incubated at a concentration of 100 nM (excepted to test the activity against ABL and ABL T315I for which the compounds were incubated at a concentration of 10 μM) and the tables 10 to 21 summarize the results obtained showing the inhibitory power of a compound.

KDR (VEGFR2) = biological target: T3, KDR (VEGFR2) (Homo sapiens, UniProt P35968); experiment: In vitro kinase assay (Z'-LYTE), KDR (VEGFR2); type: biochemical; conditions: read-out: % of inhibition of the kinase compared to the control
T3 construct: purchased Invitrogen
In short: as §3

HUVEC = experiment: In vitro cell proliferation assay (MTT), HUVEC; type: cell-based; conditions: Homo sapiens, read-out: EC50, anti-proliferative activity
In short: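 HUVEC cells were plated at 1×10^4 cells per well in 96-well plates and exposed in duplicate to increasing compound concentrations from 10 nM to 3 μM for 72 hr. Proliferation was then quantified with MTT (3[4,5-dimethylthiazol-2-yl]-2,5-diphenyltetrazolium bromide) to determine anti-proliferative activity.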

BRAF = biological target: T4, BRAF (Homo sapiens, UniProt P15056); experiment: In vitro kinase assay (Z'-LYTE), BRAF; type: biochemical; conditions: read-out: % of inhibition of the kinase compared to the control
T4 construct: purchased Invitrogen
In short: as §3

EGFR (ErbB1) T790M L858R = biological target: T5, EGFR (ErbB1) T790M L858R (Homo sapiens, UniProt P00533, L858R/T790M); experiment: In vitro kinase assay (Z'-LYTE), EGFR (ErbB1) T790M L858R; type: biochemical; conditions: read-out: % of inhibition of the kinase compared to the control
T5 construct: purchased Invitrogen
Procedure: as §4, §5, §6, §7

EGFR (ErbB1) = biological target: T6, EGFR (ErbB1) (Homo sapiens, UniProt P00533); experiment: In vitro kinase assay (Z'-LYTE), EGFR (ErbB1); type: biochemical; conditions: read-out: % of inhibition of the kinase compared to the control
T6 construct: purchased Invitrogen
In short: as §3

SRC = biological target: T7, SRC (Homo sapiens, UniProt P12931); experiment: In vitro kinase assay (Z'-LYTE), SRC; type: biochemical; conditions: read-out: % of inhibition of the kinase compared to the control
T7 construct: purchased Invitrogen
Procedure: as §4, §5, §6, §7

HeLa cell line = experiment: In vitro cell proliferation assay (MTT), HeLa; type: cell-based; conditions: Homo sapiens, 72 hr, MTT, read-out: EC50, anti-proliferative activity
Procedure: as §1, §2

MDA-MB-231 cell line = experiment: In vitro cell proliferation assay (MTT), MDA-MB-231; type: cell-based; conditions: Homo sapiens, read-out: EC50, anti-proliferative activity
Procedure: as §1, §2

HuH7 cell line = experiment: In vitro cell proliferation assay (MTT), HuH7; type: cell-based; conditions: Homo sapiens, read-out: EC50, anti-proliferative activity
Procedure: as §1, §2

HuH6 Clone 5 cell line = experiment: In vitro cell proliferation assay (MTT), HuH6 Clone 5; type: cell-based; conditions: read-out: EC50, anti-proliferative activity
Procedure: as §1, §2

HRMEC cells = experiment: In vitro cell proliferation assay (MTT), HRMEC; type: cell-based; conditions: 72 h, read-out: EC50, anti-proliferative activity
Procedure: as §1, §2

[1] = HUH-6-clone5, HuH6 Clone 5, 72 hr, MTT

T7 sequence (P12931 whole entry): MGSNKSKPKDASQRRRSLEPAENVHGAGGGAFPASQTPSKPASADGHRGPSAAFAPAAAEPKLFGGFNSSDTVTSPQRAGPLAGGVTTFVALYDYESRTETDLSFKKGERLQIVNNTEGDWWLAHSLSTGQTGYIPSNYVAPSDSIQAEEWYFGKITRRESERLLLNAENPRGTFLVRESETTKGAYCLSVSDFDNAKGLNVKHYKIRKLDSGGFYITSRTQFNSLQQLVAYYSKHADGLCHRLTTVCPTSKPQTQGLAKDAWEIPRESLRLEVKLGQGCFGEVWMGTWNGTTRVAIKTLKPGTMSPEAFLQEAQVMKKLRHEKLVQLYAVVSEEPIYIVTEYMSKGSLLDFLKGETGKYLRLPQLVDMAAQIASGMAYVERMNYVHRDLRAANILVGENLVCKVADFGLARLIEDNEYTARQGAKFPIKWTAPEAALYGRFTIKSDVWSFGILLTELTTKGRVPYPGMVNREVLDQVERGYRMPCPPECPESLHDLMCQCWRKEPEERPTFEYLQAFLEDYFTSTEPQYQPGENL
T2 sequence (P16234 24-1089): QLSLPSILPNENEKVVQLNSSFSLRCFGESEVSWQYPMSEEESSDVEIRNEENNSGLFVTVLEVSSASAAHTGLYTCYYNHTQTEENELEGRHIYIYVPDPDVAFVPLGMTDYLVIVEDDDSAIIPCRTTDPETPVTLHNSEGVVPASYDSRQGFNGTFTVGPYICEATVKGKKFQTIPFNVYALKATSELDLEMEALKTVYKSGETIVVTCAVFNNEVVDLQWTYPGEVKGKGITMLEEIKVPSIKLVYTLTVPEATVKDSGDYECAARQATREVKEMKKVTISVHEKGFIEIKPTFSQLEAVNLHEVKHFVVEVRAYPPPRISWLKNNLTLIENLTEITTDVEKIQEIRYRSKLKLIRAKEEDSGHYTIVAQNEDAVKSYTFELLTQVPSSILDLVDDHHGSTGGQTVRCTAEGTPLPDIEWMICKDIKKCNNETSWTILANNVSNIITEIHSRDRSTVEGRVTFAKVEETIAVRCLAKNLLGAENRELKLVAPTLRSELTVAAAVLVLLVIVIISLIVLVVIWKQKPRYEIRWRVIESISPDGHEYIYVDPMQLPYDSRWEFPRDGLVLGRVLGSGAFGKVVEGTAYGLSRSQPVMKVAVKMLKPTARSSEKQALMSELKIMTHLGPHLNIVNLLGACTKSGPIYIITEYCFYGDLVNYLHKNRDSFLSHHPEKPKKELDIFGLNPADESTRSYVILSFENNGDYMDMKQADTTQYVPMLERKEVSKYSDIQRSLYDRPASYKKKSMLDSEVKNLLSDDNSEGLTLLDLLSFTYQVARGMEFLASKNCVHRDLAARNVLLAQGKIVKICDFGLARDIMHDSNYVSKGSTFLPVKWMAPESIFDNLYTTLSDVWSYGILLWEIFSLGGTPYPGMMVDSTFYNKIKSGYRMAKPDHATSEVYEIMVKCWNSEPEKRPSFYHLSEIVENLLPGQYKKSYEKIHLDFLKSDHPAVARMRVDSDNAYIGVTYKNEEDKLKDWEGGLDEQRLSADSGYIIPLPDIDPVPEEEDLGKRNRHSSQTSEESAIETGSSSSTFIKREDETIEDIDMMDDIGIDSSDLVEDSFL
T3 sequence (P35968 20-1356): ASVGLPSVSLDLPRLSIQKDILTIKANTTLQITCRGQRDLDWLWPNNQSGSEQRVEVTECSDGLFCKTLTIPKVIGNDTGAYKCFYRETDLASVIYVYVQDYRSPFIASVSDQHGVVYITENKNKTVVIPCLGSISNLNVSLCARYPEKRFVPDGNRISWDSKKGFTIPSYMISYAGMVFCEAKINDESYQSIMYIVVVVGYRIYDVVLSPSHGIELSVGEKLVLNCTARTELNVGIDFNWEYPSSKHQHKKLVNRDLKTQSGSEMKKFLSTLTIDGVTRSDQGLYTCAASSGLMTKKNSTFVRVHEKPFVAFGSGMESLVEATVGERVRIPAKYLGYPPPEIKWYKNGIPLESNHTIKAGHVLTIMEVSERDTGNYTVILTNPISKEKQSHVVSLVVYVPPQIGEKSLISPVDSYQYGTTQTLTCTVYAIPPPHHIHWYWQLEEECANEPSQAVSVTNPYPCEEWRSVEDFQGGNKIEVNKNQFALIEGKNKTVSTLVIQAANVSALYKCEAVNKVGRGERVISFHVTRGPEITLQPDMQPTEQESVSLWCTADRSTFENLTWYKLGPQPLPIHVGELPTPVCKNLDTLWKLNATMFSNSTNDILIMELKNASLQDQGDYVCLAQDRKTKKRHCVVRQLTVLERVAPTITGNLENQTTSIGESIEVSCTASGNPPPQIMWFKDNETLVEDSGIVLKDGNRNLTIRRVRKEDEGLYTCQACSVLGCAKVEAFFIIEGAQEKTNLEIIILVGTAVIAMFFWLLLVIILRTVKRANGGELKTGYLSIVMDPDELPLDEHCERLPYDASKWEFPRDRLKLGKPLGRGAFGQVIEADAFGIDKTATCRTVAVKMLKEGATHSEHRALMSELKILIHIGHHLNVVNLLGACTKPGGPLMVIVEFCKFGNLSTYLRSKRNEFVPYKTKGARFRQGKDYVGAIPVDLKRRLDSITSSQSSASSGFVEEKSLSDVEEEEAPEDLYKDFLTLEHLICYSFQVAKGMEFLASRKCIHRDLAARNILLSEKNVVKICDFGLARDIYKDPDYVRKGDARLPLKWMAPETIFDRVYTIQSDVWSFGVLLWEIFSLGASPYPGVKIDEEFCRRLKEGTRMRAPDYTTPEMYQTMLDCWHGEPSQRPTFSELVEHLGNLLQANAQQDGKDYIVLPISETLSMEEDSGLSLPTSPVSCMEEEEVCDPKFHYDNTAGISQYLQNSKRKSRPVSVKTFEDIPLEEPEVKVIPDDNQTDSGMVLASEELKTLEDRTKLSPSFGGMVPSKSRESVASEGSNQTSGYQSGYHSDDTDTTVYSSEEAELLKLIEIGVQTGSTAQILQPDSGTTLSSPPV
T4 sequence (P15056 whole entry): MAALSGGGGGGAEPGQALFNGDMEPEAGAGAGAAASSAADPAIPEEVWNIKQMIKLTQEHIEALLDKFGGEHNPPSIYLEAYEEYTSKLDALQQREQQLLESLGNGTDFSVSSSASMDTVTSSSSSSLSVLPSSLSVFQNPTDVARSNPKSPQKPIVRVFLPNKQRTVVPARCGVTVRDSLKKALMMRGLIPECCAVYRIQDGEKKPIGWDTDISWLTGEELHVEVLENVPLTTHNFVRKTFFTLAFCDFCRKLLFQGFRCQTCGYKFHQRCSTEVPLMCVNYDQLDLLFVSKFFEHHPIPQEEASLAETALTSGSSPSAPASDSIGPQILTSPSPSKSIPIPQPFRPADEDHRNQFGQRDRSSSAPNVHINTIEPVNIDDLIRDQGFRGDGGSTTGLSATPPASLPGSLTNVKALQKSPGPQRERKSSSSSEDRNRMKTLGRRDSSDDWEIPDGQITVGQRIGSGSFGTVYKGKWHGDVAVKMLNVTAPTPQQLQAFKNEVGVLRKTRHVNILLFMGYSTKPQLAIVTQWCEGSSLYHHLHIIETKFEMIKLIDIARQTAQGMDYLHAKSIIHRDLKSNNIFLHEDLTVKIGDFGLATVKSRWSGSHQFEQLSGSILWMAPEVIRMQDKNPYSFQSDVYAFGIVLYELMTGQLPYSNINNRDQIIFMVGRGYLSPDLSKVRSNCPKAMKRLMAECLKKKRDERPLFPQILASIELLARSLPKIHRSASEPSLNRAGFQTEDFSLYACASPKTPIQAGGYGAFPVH
T5 sequence (P00533 25-1210 T790M/L858R): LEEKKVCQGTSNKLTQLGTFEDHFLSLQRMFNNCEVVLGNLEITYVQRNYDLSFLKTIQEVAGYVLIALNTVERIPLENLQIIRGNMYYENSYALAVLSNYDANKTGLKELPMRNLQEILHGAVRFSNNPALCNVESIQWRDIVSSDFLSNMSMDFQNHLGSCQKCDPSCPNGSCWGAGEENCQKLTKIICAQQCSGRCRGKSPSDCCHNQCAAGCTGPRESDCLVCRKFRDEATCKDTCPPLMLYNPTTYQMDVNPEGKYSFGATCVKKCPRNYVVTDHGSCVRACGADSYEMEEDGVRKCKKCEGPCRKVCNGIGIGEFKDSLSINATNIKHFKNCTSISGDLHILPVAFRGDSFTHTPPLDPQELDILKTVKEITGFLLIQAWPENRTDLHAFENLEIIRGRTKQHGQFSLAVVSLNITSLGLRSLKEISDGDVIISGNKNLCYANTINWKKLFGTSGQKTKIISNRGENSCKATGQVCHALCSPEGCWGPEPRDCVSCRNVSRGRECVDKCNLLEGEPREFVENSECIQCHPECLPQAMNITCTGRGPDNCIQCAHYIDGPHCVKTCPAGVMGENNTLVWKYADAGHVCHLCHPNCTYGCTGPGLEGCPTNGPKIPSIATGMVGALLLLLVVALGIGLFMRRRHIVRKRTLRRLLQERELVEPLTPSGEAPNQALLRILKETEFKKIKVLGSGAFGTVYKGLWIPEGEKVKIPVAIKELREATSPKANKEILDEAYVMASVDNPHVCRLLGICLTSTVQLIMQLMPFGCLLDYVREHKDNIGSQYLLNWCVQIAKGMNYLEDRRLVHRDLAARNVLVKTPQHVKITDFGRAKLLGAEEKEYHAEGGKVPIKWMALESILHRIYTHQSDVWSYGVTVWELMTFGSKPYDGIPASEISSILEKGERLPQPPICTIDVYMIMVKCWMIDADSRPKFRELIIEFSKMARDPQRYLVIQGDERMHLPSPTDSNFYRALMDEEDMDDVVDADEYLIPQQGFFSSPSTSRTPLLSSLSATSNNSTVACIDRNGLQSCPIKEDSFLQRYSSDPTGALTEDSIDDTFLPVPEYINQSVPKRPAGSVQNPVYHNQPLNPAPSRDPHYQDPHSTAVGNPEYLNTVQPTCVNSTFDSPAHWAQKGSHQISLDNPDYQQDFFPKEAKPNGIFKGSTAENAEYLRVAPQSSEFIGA

| EC50 (HepG2 cell line; HepG2, 72 hr, MTT) [nM] | inhibition at 0.1 µM (FGFR2) [%] | EC50 (A549 cell line; A549, 72 hr, MTT) [nM] | EC50 (HT29 cell line) [nM] | inhibition at 0.1 µM (PDGFRA (PDGFR alpha)) [%] | inhibition at 0.1 µM (KDR (VEGFR2)) [%] | inhibition at 0.1 µM (BRAF) [%] | inhibition at 0.1 µM (EGFR (ErbB1) T790M L858R) [%] | inhibition at 0.1 µM (EGFR (ErbB1)) [%] | inhibition at 0.1 µM (SRC) [%] | EC50 (HeLa cell line) [nM] | EC50 (HuH7 cell line; Huh-7, HuH7, 72 hr, MTT) [nM] | EC50 (HuH6 Clone 5 cell line; [1]) [nM] | SMILES | EC50 (HuCCT1 cell line) [nM] | EC50 (HUVEC; 72 hr, MTT) [nM] | EC50 (HUVEC; 72 h) [nM] | also measured |
| --- | --- | --- | --- | --- | --- | --- | --- | --- | --- | --- | --- | --- | --- | --- | --- | --- | --- |
| ≥ 1000 | – | – | – | – | – | – | – | – | – | – | – | – | Cc1nc(Nc2ncc(C(=O)Nc3c(C)cccc3Cl)s2)cc(N2CCN(CCO)CC2)n1 [Dasatinib, reference compound] | ≥ 1000 | – | – | – |
| – | < 50 | ≥ 1000 | ≥ 1000 | ≥ 50 | < 50 | < 50 | < 50 | < 50 | < 50 | – | – | – | CC(=O)c1cc2cc(NC(=O)c3cc(NC(=O)c4ccc(CN5CCN(C)CC5)cc4)ccc3C)cnc2[nH]1 [OR0780, N-(2-Acetyl-1H-pyrrolo[2,3-b]pyridin-5-yl)-2-methyl-5-[4-(4-methyl-piperazin-1-ylmethyl)-benzoylamino]-benzamide] | – | ≥ 1000 | – | EC50 (H1975 cell line; NCI-H1975, H1975, 72 hr, MTT): ≥ 1000 nM |
| ≥ 1000 | < 50 | ≥ 1000 | – | < 50 | < 50 | < 50 | – | < 50 | < 50 | ≥ 1000 | – | – | CC(=O)c1cc2cc(NC(=O)c3cccc(CNC(=S)c4cccc(C(F)(F)F)c4)c3)cnc2[nH]1 [OR1012, N-[3-(2-Acetyl-1H-pyrrolo[2,3-b]pyridin-5-ylcarbamoyl)-benzyl]-3-trifluoromethyl-thiobenzamide] | – | ≥ 1000 | – | EC50 (MDA-MB-231 cell line; MDA-MB-231, 72 hr, MTT): ≥ 1000 nM |
| – | < 50 | ≥ 1000 | – | < 50 | < 50 | < 50 | – | < 50 | < 50 | ≥ 1000 | – | – | CC(=O)c1cc2cc(NCc3cc(NC(=S)Nc4cccc(C(F)(F)F)c4)ccc3C)cnc2[nH]1 [OR1015, 1-{3-[(2-Acetyl-1H-pyrrolo[2,3-b]pyridin-5-ylamino)-methyl]-4-methyl-phenyl}-3-(3-trifluoromethyl-phenyl)-thiourea] | – | – | 100 to 1000 | EC50 (HepG2 cell line; HepG2, 72 h): 100 to 1000 nM; EC50 (MDA-MB-231 cell line; MDA-MB-231, 72 hr, MTT): ≥ 1000 nM |
| 1000 to 3000 | – | – | – | – | – | – | – | – | – | – | 1000 to 3000 | 1000 to 3000 | CNC(=O)c1cc(Oc2ccc(NC(=O)Nc3ccc(Cl)c(C(F)(F)F)c3)cc2)ccn1 [Sorafenib, reference compound] | 1000 to 3000 | – | – | – |
| – | < 50 | – | – | ≥ 50 | ≥ 50 | < 50 | – | ≥ 50 | ≥ 50 | – | ≥ 1000 | – | CC(=O)c1cc2cc(NCc3cc(NC(=O)c4ccc(CN5CCN(C)CC5)cc4)ccc3C)cnc2[nH]1 [OR0734, N-{3-[(2-Acetyl-1H-pyrrolo[2,3-b]pyridin-5-ylamino)-methyl]-4-methyl-phenyl}-4-(4-methyl-piperazin-1-ylmethyl)-benzamide] | – | – | – | – |
| ≥ 1000 | ≥ 50 | ≥ 1000 | ≥ 1000 | ≥ 50 | ≥ 50 | ≥ 50 | ≥ 50 | ≥ 50 | ≥ 50 | – | – | ≥ 1000 | CC(=O)c1cc2cc(NC(=O)c3cc(NC(=O)c4ccc(CN5CCN(C)CC5)c(C(F)(F)F)c4)ccc3C)cnc2[nH]1 [OR0781, N-(2-Acetyl-1H-pyrrolo[2,3-b]pyridin-5-yl)-2-methyl-5-[4-(4-methyl-piperazin-1-ylmethyl)-3-trifluoromethyl-benzoylamino]-benzamide] | ≥ 1000 | – | 100 to 1000 | EC50 (HuH7 cell line; Huh-7, 72 h): 100 to 1000 nM; EC50 (H1975 cell line; NCI-H1975, 72 h): 100 to 1000 nM |
| ≥ 1000 | < 50 | ≥ 1000 | – | ≥ 50 | ≥ 50 | ≥ 50 | ≥ 50 | ≥ 50 | ≥ 50 | – | ≥ 1000 | – | CNC(=O)c1cc2cc(NCc3cc(NC(=O)c4ccc(CN5CCN(C)CC5)cc4)ccc3C)cnc2[nH]1 [OR0753, 5-{2-Methyl-5-[4-(4-methyl-piperazin-1-ylmethyl)-benzoylamino]-benzylamino}-1H-pyrrolo[2,3-b]pyridine-2-carboxylic acid methylamide] | ≥ 1000 | ≥ 1000 | – | EC50 (HuH6 Clone 5 cell line; HUH-6-clone5, 72 h): 100 to 1000 nM |
| – | ≥ 50 | – | – | – | ≥ 50 | ≥ 50 | – | ≥ 50 | – | ≥ 1000 | – | – | CNC(=O)c1cc2cc(NCc3cc(NC(=O)c4ccc(CN5CC[C@H](N(C)C)C5)c(C(F)(F)F)c4)ccc3C)cnc2[nH]1 [OR0813, 5-{5-[4-((S)-3-Dimethylamino-pyrrolidin-1-ylmethyl)-3-trifluoromethyl-benzoylamino]-2-methyl-benzylamino}-1H-pyrrolo-[2,3-b]pyridine-2-carboxylic acid methylamide] | – | – | ≤ 100 | EC50 (A549 cell line; A549, 72 h): ≤ 100 nM; EC50 (HRMEC cells): 100 to 1000 nM; EC50 (HepG2 cell line; HepG2, 72 h): ≤ 100 nM; EC50 (MDA-MB-231 cell line; MDA-MB-231, 72 h): 100 to 1000 nM |
| ≥ 1000 | ≥ 50 | ≥ 1000 | ≥ 1000 | ≥ 50 | ≥ 50 | < 50 | < 50 | ≥ 50 | ≥ 50 | – | ≥ 1000 | ≥ 1000 | CC(=O)c1cc2cc(NC(=O)c3cc(NC(=O)c4ccc(CN5CCC(N(C)C)C5)c(C(F)(F)F)c4)ccc3C)cnc2[nH]1 (stereo not drawn) [OR0782, N-(2-Acetyl-1H-pyrrolo[2,3-b]pyridin-5-yl)-2-methyl-5-[4-(3-dimethylamino-pyrrolidin-1-ylmethyl)-3-trifluoromethyl-benzoylamino]-benzamide] | ≥ 1000 | ≥ 1000 | – | EC50 (H1975 cell line; NCI-H1975, H1975, 72 hr, MTT): ≥ 1000 nM |
